Earlier results on one compound are cited in patent publication US9597322B2, “Otamixaban for use in the treatment of non-ST elevation acute coronary syndrome in patients planned to undergo coronary artery bypass grafting” (SANOFI, priority 2012, dated 2017).

Data set [1] addresses free factor Xa (Homo sapiens, UniProt P00742). The note with it: direct, independent of antithrombin III; cited from earlier work.
Data set [2] deals with factor Xa assembled in the prothrombinase complex (Factor Xa, Factor Va, calcium and phospholipid) (Homo sapiens, UniProt P00742). The note with it: direct, independent of antithrombin III; cited from earlier work.
factor Xa assembled in the prothrombinase complex (Factor Xa, Factor Va, calcium and phospholipid), sequence (P00742 235-488 limits assumed): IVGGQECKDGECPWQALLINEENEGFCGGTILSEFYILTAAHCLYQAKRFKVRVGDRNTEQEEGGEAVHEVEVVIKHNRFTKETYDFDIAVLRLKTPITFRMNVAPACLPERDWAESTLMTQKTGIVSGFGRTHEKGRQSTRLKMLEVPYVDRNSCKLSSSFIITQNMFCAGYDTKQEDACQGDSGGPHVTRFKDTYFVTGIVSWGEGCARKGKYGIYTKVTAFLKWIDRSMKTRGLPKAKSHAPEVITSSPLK
factor Xa assembled in the prothrombinase complex (Factor Xa, Factor Va, calcium and phospholipid), sequence (P00742 41-179 partner limits assumed): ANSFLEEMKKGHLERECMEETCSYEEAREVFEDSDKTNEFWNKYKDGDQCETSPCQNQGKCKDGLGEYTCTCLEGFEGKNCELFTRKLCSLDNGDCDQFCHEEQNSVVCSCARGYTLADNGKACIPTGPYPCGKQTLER
factor Xa assembled in the prothrombinase complex (Factor Xa, Factor Va, calcium and phospholipid), sequence (P12259 29-737 partner limits assumed): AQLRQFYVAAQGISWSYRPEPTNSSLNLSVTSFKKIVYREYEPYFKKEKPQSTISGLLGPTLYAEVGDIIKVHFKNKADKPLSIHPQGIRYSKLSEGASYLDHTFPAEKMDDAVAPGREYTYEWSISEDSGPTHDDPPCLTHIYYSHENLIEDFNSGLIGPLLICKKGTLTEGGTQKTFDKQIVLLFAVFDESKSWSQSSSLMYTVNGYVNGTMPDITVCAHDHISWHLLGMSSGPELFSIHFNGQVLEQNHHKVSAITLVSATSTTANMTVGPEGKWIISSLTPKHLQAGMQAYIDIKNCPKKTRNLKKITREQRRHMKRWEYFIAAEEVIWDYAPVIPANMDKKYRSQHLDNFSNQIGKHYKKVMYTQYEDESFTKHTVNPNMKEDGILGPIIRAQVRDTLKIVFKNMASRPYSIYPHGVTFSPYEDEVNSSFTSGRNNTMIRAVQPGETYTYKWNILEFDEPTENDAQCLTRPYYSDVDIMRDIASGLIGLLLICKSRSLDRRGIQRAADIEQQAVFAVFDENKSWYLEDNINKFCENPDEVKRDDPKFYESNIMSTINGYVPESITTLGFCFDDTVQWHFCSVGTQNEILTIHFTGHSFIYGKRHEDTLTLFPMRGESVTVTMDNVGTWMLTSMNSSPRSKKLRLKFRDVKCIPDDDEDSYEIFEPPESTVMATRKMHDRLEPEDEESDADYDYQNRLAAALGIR
factor Xa assembled in the prothrombinase complex (Factor Xa, Factor Va, calcium and phospholipid), sequence (P12259 1574-2224 partner limits assumed): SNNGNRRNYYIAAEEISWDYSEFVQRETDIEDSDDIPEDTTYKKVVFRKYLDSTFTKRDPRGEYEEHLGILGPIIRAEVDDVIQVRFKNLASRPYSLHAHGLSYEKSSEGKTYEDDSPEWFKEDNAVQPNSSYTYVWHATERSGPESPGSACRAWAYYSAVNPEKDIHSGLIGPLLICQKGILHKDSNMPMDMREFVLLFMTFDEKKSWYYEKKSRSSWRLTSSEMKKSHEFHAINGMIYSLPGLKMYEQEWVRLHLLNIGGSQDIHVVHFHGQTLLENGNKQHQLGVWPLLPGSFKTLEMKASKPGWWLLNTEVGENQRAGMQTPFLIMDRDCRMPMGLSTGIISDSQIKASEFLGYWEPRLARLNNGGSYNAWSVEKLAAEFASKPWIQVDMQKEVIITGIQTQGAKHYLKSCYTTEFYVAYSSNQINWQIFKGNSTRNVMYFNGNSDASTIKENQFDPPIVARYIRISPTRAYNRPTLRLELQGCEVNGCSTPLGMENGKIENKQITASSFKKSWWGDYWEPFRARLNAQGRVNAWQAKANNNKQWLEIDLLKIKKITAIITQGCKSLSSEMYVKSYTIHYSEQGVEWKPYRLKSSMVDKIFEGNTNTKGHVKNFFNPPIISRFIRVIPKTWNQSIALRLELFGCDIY
Data set [3] has as its system thrombosis. To be noted: rodent; cited from earlier work.
The subject of data set [4] is thrombosis. To be noted: canine; cited from earlier work.
The test system of data set [5] is thrombosis. To be noted: porcine; cited from earlier work.
In data set [6] the test system is prothrombin fragments 1+2. To be noted: highest dose regimen; Cohen et al. 2007; cited from earlier work.
In data set [7] the target is T1, factor Xa (Homo sapiens, UniProt P00742).
T1 construct: host or cells: blood of patients (endogenous)
T1 sequence (P00742 235-488 limits assumed): as the sequence (P00742 235-488 limits assumed) above
T1 sequence (P00742 41-179 partner limits assumed): as the sequence (P00742 41-179 partner limits assumed) above
The note with it: patients with stable coronary artery disease on usual comedication, some with mild renal impairment; Hinder et al. 2006; cited from earlier work.

Where two headings read alike, the source gives them in different places.

free factor Xa, sequence (P00742 235-488 limits assumed): as the sequence (P00742 235-488 limits assumed) above
free factor Xa, sequence (P00742 41-179 partner limits assumed): as the sequence (P00742 41-179 partner limits assumed) above

As to `COC(=O)C(Cc1cccc(C(=N)N)c1)[C@@H](C)NC(=O)c1ccc(-c2cc[n+]([O-])cc2)cc1` (mixture of isomers) [Otamixaban, (2R,3R)-2-(3-Carbamimidoyl-benzyl)-3-[4-(1-oxy-pyridin-4-yl)benzoylamino]-butyric acid methyl ester], the “inhibition of free factor Xa” value in data set [1] is reported as “inhibited”. Also, the “inhibition of factor Xa assembled in the prothrombinase complex” value in data set [2] is recorded as “inhibited”. In addition, the “efficacy in model of thrombosis” value in data set [3], in data set [4] and in data set [5] was “highly efficacious” each time. Moreover, the “reduction of prothrombin fragments 1+2 versus unfractionated heparin” value in data set [6] is on record as “significantly more than unfractionated heparin”. Also, in data set [7], the “factor Xa inhibition in patients” value is given as “dose-dependent, rapid direct factor Xa inhibition”.
